Test results published in PubChem BioAssay (NCI).
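Five compound concentrations were applied to cells in 96-well plates for 48 hours; endpoints were derived by simple linear interpolation of the resulting dose-response curve. Abbreviation: GI50, concentration required for 50% inhibition of growth. TGI: concentration producing complete growth inhibition.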

Experiments:
Experiment in all cases: growth of human tumour cells (NCI), 48 h
[1] = test system: CAKI-1 renal
[2] = test system: SF-268 CNS
[3] = test system: K-562 leukemia
[4] = test system: OVCAR-5 ovarian
[5] = test system: NCI-H522 lung
[6] = test system: MDA-MB-231 breast
[7] = test system: UO-31 renal
[8] = test system: RPMI-8226 leukemia
[9] = test system: MDA-MB-435
[10] = test system: KM12 colon
[11] = test system: UACC-62 melanoma
[12] = test system: SW-620 colon
[13] = test system: RXF 393 renal
[14] = test system: LOX IMVI melanoma
[15] = test system: NCI/ADR-RES ovarian
[16] = test system: BT-549 breast
[17] = test system: OVCAR-4 ovarian
[18] = test system: HCT-15 colon
[19] = test system: HCT-116 colon
[20] = test system: OVCAR-8 ovarian
[21] = test system: T-47D breast
[22] = test system: UACC-257 melanoma
[23] = test system: SR leukemia
[24] = test system: MALME-3M melanoma
[25] = test system: M14 melanoma
[26] = test system: A549 NSCLC
[27] = test system: OVCAR-3 ovarian
[28] = test system: TK-10 renal

Q: How did the GI50 [1] turn out when `CN(C)CCNC(=O)c1cc2c3ccccc3[nH]c2c2ncccc12` was run?
A: 0.515 µM

Q: What about the TGI [1] of the same molecule?
A: 12.3 µM

Q: What about the GI50 [2] of the same molecule?
A: 6.37 µM

Q: What about the TGI [2] of the same molecule?
A: 23.7 µM

Q: What about the GI50 [3] of the same molecule?
A: 9.05 µM

Q: What about the TGI [3] of the same molecule?
A: 26.2 µM

Q: What about the GI50 [4] of the same molecule?
A: 20.6 µM

Q: And the TGI [4]?
A: 68.3 µM

Q: And the GI50 [5]?
A: 7.08 µM

Q: What about the TGI [5] of the same molecule?
A: 24.5 µM

Q: And the GI50 [6]?
A: 5.25 µM

Q: And the TGI [6]?
A: 26.8 µM

Q: What about the GI50 [7] of the same molecule?
A: 2.13 µM

Q: And the TGI [7]?
A: 24.3 µM

Q: And the GI50 [8]?
A: 6.01 µM

Q: What about the TGI [8] of the same molecule?
A: 22.7 µM

Q: What about the GI50 [9] of the same molecule?
A: 2.89 µM

Q: And the TGI [9]?
A: 15.4 µM

Q: What about the GI50 [10] of the same molecule?
A: 12.8 µM

Q: And the TGI [10]?
A: 77.4 µM

Q: What about the GI50 [11] of the same molecule?
A: 13.4 µM

Q: What about the TGI [11] of the same molecule?
A: 28 µM

Q: And the GI50 [12]?
A: 4.24 µM

Q: And the TGI [12]?
A: 24.9 µM

Q: What about the GI50 [13] of the same molecule?
A: 6.08 µM

Q: And the TGI [13]?
A: 20.1 µM

Q: What about the GI50 [14] of the same molecule?
A: 4.14 µM

Q: And the TGI [14]?
A: 17.5 µM

Q: And the GI50 [15]?
A: 22.5 µM

Q: What about the TGI [15] of the same molecule?
A: > 100 µM

Q: What about the GI50 [16] of the same molecule?
A: 6.36 µM

Q: What about the TGI [16] of the same molecule?
A: 20.7 µM

Q: And the GI50 [17]?
A: 8.48 µM

Q: What about the TGI [17] of the same molecule?
A: 47.7 µM

Q: And the GI50 [18]?
A: 5.88 µM

Q: And the TGI [18]?
A: 25 µM

Q: And the GI50 [19]?
A: 3.95 µM

Q: And the TGI [19]?
A: 25.3 µM

Q: What about the GI50 [20] of the same molecule?
A: 6.11 µM

Q: And the TGI [20]?
A: 40.9 µM

Q: And the GI50 [21]?
A: 18.4 µM

Q: What about the TGI [21] of the same molecule?
A: > 100 µM

Q: What about the GI50 [22] of the same molecule?
A: 10.4 µM

Q: And the TGI [22]?
A: 88.1 µM

Q: And the GI50 [23]?
A: 3.34 µM

Q: And the TGI [23]?
A: 13.2 µM

Q: What about the GI50 [24] of the same molecule?
A: 10.7 µM

Q: What about the TGI [24] of the same molecule?
A: 26.5 µM

Q: And the GI50 [25]?
A: 12.1 µM

Q: What about the TGI [25] of the same molecule?
A: 27.2 µM

Q: And the GI50 [26]?
A: 6.46 µM

Q: What about the TGI [26] of the same molecule?
A: 36.9 µM

Q: What about the GI50 [27] of the same molecule?
A: 0.0254 µM

Q: What about the TGI [27] of the same molecule?
A: 16.8 µM

Q: What about the GI50 [28] of the same molecule?
A: 8.99 µM

Q: And the TGI [28]?
A: 54.7 µM
